This test has as its target T1, SHP2 N‐SH2 domain (Homo sapiens, UniProt Q06124).
T1 construct: SHP2 N-SH2 domain (1–105), C-SH2 domain (106–220), PTP domain (224–541) and; His6 (pETM22 vector) (N, cleaved yes); made in house; host or cells: E. coli BL21(DE3)
T1 sequence (Q06124 1-105): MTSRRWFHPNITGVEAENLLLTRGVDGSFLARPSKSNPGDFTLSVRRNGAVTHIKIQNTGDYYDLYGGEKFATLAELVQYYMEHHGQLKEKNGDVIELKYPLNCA
As to the kind of experiment: Fluorescence polarization (FP) binding assay, SHP2 N-SH2 domain. The following applies: 100 nM FAM-labelled peptide, increasing N-SH2 protein, 50 mM HEPES pH 7.5, 150 mM NaCl, 1 mM EDTA, 0.05% Tween 20, FP at 10 min, three independent experiments in technical triplicates, read-out: K D ± SEM, N‐SH2 (FP). Here is the method:
buffer and stored in 5 mL binding buffer at 4°C. His-tagged 3C protease (0.5 mg; EMBL) was added to the pooled eluted fractions and dialysed using Spectra Por Dialysis Tubing (MWCO 6-8 kDa, 23 mm; Spectrum Labs) in 1 L of binding buffer at 4°C for 3 hours, then overnight in fresh buffer. A new column was prepared by loading 2 mL Ni-NTA Agarose (Invitrogen) as a 50% slurry in EtOH. The column was washed with 10 mL H2O to remove the EtOH and equilibrated with 10 mL binding buffer. The protein/3C protease mixture was loaded onto the column and incubated for 1 hour at 4°C on a rocker. The flow through containing the protein was collected, the column was washed with 100 mL binding buffer and the 3C protease was eluted with 5 mL elution buffer. Protein purification was monitored by SDS-PAGE using NuPAGE 4-12% Bis-Tris Protein Gels (Invitrogen) run in MOPS buffer (50 mM MOPS, 50 mM Tris-HCl pH 7.7, 1 mM EDTA, 0.1% SDS) followed by Coomassie staining using Coomassie Brilliant Blue (Roth). The purified protein was dialysed into the final storage buffer (50 mM HEPES pH 7.5, 150 mM NaCl, 2 mM DTT, 20% glycerol). Aliquots were prepared and stored at -80°C until required. […]
4. Fluorescence polarization
Fluorescence polarization (FP) was used to measure the binding of FAM-labelled peptides to the SHP2 C-SH2, SHP2 N-SH2, SHP2 PTP, CSK SH2 or Src SH2 domains. Each peptide was added to increasing concentrations of SHP2 C-SH2, SHP2 N-SH2, SHP2 PTP, CSK SH2 or Src SH2 protein in FP buffer (50 mM HEPES pH 7.5, 150 mM NaCl, 1 mM EDTA, 0.05% Tween 20) to give a final peptide […]
concentration of 100 nM in a final volume of 200 µL. For baseline subtraction, each peptide was added to FP buffer, instead of protein, with a final peptide concentration of 100 nM in a final volume of 200 µL. Samples were mixed gently then 3 x 60 µL of each sample was transferred into triplicate wells in a 96-well plate (OptiPlate-96 F Black; PerkinElmer). The FP was immediately measured on a Synergy H1 Microplate Reader (BioTek) with the excitation and emission monitored at 485 nm and 528 nm, respectively, over 30 minutes. FP values were automatically calculated by the Gen5 3.03 (BioTek) software associated with the microplate reader. Data were analysed in Excel 2016 by subtracting baseline values from FP values at 10 minutes. Data were then further analysed in GraphPad Prism 6 by plotting the baseline subtracted FP values against the protein concentration and fitting the data to a variable slope model of non-linear regression to obtain the KD values. Data are from three independent experiments, each performed in technical triplicates.
5. Isothermal titration calorimetry […]
Analysis Software (Malvern Panalytical). For the data analysis, a 1:1 binding stoichiometry between the Ac-ITSM(pTyr) and SH2 domain was assumed. ITC measurements were performed once.
On the technique in general: Fluorescence polarisation rises when a labelled molecule tumbles more slowly, as on binding a larger partner.

Residues, ends and D or L forms follow the SMILES beside them. *: point of attachment. 5FAM = O=C1OC2(c3ccc(O)cc3Oc3cc(O)ccc32)c2ccc(C(=O)*)cc21; X1 = O=C(O)C(C(=O)O)*

As to `CC[C@H](C)[C@H](NC(=O)[C@@H](NC(=O)[C@H](C)NC(=O)[C@H](Cc1ccc(OC(C(=O)O)C(=O)O)cc1)NC(=O)[C@H](CCC(=O)O)NC(=O)[C@@H](NC(=O)[C@H](CCC(N)=O)NC(=O)c1ccc2c(c1)C(=O)OC21c2ccc(O)cc2Oc2cc(O)ccc21)[C@@H](C)O)[C@@H](C)O)C(=O)N[C@@H](CCCCN)C(=O)N[C@@H](Cc1c[nH]cn1)C(=O)N1CCC[C@H]1C(N)=O` [peptide 26] (5FAM-QTEY(X1)ATIKHP-NH2), the Kd is more than 32 µM.
